According to patent publication US4939124A, “Treatment and diagnosis of dementia” (Laboratorios Serono S.A., priority 1988, dated 1990):

What was measured:
Male Wistar rats = assay: Locomotor activity in open field paradigm (OUCEM-86), i.c.v. injection; format: in vivo
Description: To clarify whether SS and GRF display at the central level the same antagonistic effect that they have at the pituitary level, the effects of these neuropeptides on several behavioral parameters have been studied using the OUCEM-86^TM (Osaka University Computerized Electronic Maze). The system is integrated by the following components: a Programmable Electronic Platform (PEP) (620×620 mm) equipped with 48 photo beam sensors (OPX-T30); a Programming Panel (PP) (Model BECM-0064) for paradigm stimulation; a Shock Generator Scrambler (SGS) (Model BSG-1065) to apply continuous or discontinuous electric current to the PEP; a Control Station (CS) (BEC 16-Bio Computer Control Station BCS-1105; Bio Medica, Ltd., Osaka) which processes inputs/outputs as an interface device to automatically computerize behavioral parameters; and a Computer System (NEC PC-9801 VM2) with 1 megabyte Random Access Memory (RAM) for data processing and experimental setting.
Male Wistar rats (175-200 g) (N =5-8 rats/group) received intracerebroventricular (i.c.v.) injections of GRF1-44 and SS-14 over a range of 0.1 to 10 mcg. Then the rats were studied in the OUCEM under two different paradigms (e.g., open field and maze paradigms).
The animals were placed in the PEP for 30-minute periods and locomotor activity (LA) was automatically recorded in an open field paradigm. Total LA is represented as total inputs (I/O) including movements in four-footed position (4F) and in two-footed position (2F), grooming, rearing and jumping activity, while linear (horizontal) movements (4F) are represented as pulses per minute (pm) or cm^2 /min

[1] = test system: SDAT patients and controls; assay: Mental performance and behavior after the GRF test (DRS, MMS, BCRS, MNS); format: in vivo, human; conditions: for DRS score: basal 3.5±1.75; for MMS score: basal 3.5±2.65
Experimental: All the SDAT patients met the DSM-III criteria for primary degenerative dementia and rigorous diagnostic criteria for SDAT. […] In LOSDAT, the onset of the disease occurred after the age of 60. The degree of severity of the dementia was assessed with Hasegawa's Dementia Rating Scale (DRS) (Hasegawa K., Inoue K. "An investigation of dementia rating scale for the elderly." Seishinigaku 16:965-969, 1974), Folstein's Mini-Mental State (MMS) Test (Folstein M. F., Folstein S., McHugh P. "Mini-mental state: a practical method for grading the cognitive state of patients for the clinician." J. Psychiat. Res. 12:189-198, 1975) and a modified model of the Brief Cognitive Rating Scale (BCRS) and Functional Assessment Stages (FAST) of Reisberg (Reisberg B., Ferris S. H., De Leon M. J. "Senile dementia of the Alzheimer type: Diagnosis and differential diagnostic features with special reference to functional assessment staging." in: Traber J., Gispen W. H. (Ed). Senile dementia of the Alzheimer type. pp 18-37, Springer-Verlag, Berlin, 1985). Concomitant pathology other than SDAT was discarded under a careful screening of the subjects with CT Scan, EEG, ECG and complementary laboratory data. Current diagnosis or history of SDM-III major affective disorder or schizophrenia as well as history of endocrine disease were criteria for exclusion. All of the control subjects were free of psychiatric and endocrine illness. All subjects included had been drug-free for a minimum of 7 days before testing.
(§1) Simultaneously to the performance of the GRF test, electroencephalograhic and cardiovascular monitorization of the subjects were carried out. Twenty-four hours prior to the GRF test, and 3, 12, 24 and 48 hours after testing, the DRS, MMS, BCRS, and FAST tests were performed to evaluate mental performance and behavior. Additional monitoring of GRF effects was done by global physician assessment and evaluation of the Mihara Nursing Scale (MNS). This test was developed to be used as a non-cognitive parametric indicator involving several items, including quantification of food intake, locomotion, social interaction, and complementary laboratory data.
(§2) The results were analyzed statistically by the Student's test, analysis of variance (ANOVA) and the Mann-Whitney test using a NEC PC-9801VM2 computer.

[2] = test system: female in-patients with primary degenerative dementia (Alzheimer like); assay: 8-day GRF (1-29) NH2 therapy, MMS Folstein test and Crichton's scale; format: in vivo, human; conditions: for MMS Folstein and Crichton's scale scores and clinical findings: 8 days, 12 hours, 24 hours, 7 days
Experimental: Twenty female in-patients with primary degenerative dementia (Alzheimer like) aged 67-84 years were divided in two therapy-groups with GRF (1-29) NH2. All patients were treated with this product for 8 days with either of the following schedules: (I) 250 mcg s.c. twice daily (II) 50 mcg i.v. twice daily Therapy was started after a 15-day wash-out period for psychotropic-drugs. Evolution of patients was assessed using the MMS Folstein test and Chrichton's scale test at 12 hours, 24 hours and 7 days after starting with GRF. The statistical evaluation was made using Friedman test with a risk level p<0,01 (highly significant differences).

[3] = test system: controls and SDAT subjects; assay: Electroencephalographic monitoring during the GRF test; format: in vivo, human; conditions: for EEG amplitude, sequential analysis (increase) / EEG frequency, sequential analysis (fall): 15 to 45 minutes after injection
Experimental: as §1, §2

Substance: growth hormone releasing factor [GRF]
- locomotor activity (LA), open field (Male Wistar rats; 1 mcg i.c.v. (SS-14 / GRF1-44), 30-minute period, control 31.16±6.90 pm): 47.60±5.35 pm
- locomotor activity (LA), open field (Male Wistar rats; GRF1-44 1 mcg i.c.v., control 1122±248 cm^2 /min): 1713.6±69.5 cm^2 /min
- qualitative behavioral change, open field (Male Wistar rats; GRF 1 mcg i.c.v.): hyperkinetic syndrome characterized by compulsive, uncontrolled movements
- DRS score ([1]; 3 hr after GRF test): 5.5±2.10
- MMS score ([1]; 3 hr after GRF test): 5.15±3.75
- DRS score ([1]; 12 hr after GRF test): 6.75±3.25
- MMS score ([1]; 12 hr after GRF test): 5.5±3.65
- DRS score ([1]; 24 hr after GRF test): 4.35±1.95
- MMS score ([1]; 24 hr after GRF test): 4.5±2.75
- DRS score ([1]; 48 hr after GRF test): 3.5±1.55
- MMS score ([1]; 48 hr after GRF test): 4.35±2.75
- duration of behavioral changes ([1]; BCRS and MNS changes after GRF test): transient
- BCRS Axis 4 (orientation) affected by GRF ([1]; after GRF test): 30%
- BCRS Axis 7 (psychomotor) affected by GRF ([1]; after GRF test): 50%
- BCRS Axis 8 (mood and behavior) affected by GRF ([1]; after GRF test): 40%
- bulimic syndrome developed ([1]; after GRF test): 2 patients
- appetite increased (MNS), share of subjects ([1]; controls): 30%
- appetite increased (MNS), share of subjects ([1]; patients): 45%
- social interaction improved (MNS), share of subjects ([1]; patients): 40%
- comparison of i.v. and s.c. groups (increase in scores and clinical findings) ([2]; GRF (1-29) NH2 50 mcg i.v. vs 250 mcg s.c. twice daily): more important in the group with i.v. GRF administration than in the one with s.c. administration
- persistence of effect ([2]; GRF (1-29) NH2, both groups): remains significant over the whole 7 days of treatment
- start of effect after administration ([2]; GRF (1-29) NH2, both groups): 12 h
- sphincter control and general psychomotricity after discontinuation ([2]; GRF (1-29) NH2 administration discontinued): returned to pretreatment situation
- sphincter control and general psychomotricity (nurse's report) ([2]; during treatment with GRF (1-29) NH2): improvement
- MMS Folstein and Crichton's scale scores and clinical findings ([2]; group I: GRF (1-29) NH2 250 mcg s.c. twice daily): significant increase
- MMS Folstein and Crichton's scale scores and clinical findings ([2]; group II: GRF (1-29) NH2 50 mcg i.v. twice daily): significant increase
- EEG amplitude, sequential analysis (increase) ([3]; SDAT patients): 52.5±9.89 uV
- EEG frequency, sequential analysis (fall) ([3]; SDAT patients): 7.05±0.90 Hz
- EEG basic rhythm frequency, global evaluation after testing ([3]; SDAT, prior to GRF test 8.08±0.67 Hz): 7.46±0.53 Hz
- EEG basic rhythm amplitude, global evaluation after testing ([3]; SDAT, prior to GRF test 40.80±6.06 uV): 43.69±5.12 uV
- EEG amplitude, sequential analysis (increase) ([3]; control subjects): 55.60±6.40 uV
- EEG frequency, sequential analysis (fall) ([3]; control subjects): 8.75±0.25 Hz
- EEG basic rhythm frequency, global evaluation after testing ([3]; controls, prior to GRF test 9.27±0.11 Hz): 9.05±0.12 Hz
- EEG basic rhythm amplitude, global evaluation after testing ([3]; controls, prior to GRF test 47.36±3.36 uV): 49.67±5.75 uV
